Laboratory results taken from ChEMBL document CHEMBL2202983, “Structure-anti-leukemic activity relationship study of ortho-dihydroxycoumarins in U-937 cells: key role of the δ-lactone ring in determining differentiation-inducing potency and selective pro-apoptotic action” (Bioorg Med Chem, 2012).
The source made the active and inactive calls. The rule behind the calls is not given here.

What was measured:
U-937 [1] = assay: Induction of apoptosis in human U937 cells assessed as activation of caspase-3 at 500 uM after 24 hrs by colorimetric assay; assay type: functional, cell-based
U-937 [2] = assay: Cytotoxicity against human U937 cells after 48 hrs by trypan blue assay; assay type: functional; settings: U-937, 48 h
U-937 [3] = assay: Antiproliferative activity against human U937 cells assessed as incorporation of [3H]-methyl-thymidine after 12 hrs by scintillation counting; assay type: functional, cell-based
[4] = Pro-oxidant activity in 0.1 M potassium phosphate buffer at pH 7.4 assessed as increase of oxidation potential by cyclic voltammetry analysis; assay type: physicochemical
U-937 [5] = assay: Induction of apoptosis in human U937 cells assessed as activation of caspase-3 at 1000 uM after 48 hrs by colorimetric assay; assay type: functional, cell-based
U-937 [6] = assay: Induction of apoptosis in human U937 cells assessed as reduction of normal cells at 1000 uM after 24 hrs by Annexin V-FITC double staining; assay type: functional, cell-based
U-937 [7] = assay: Inhibition of clonogenic activity in human U937 cells assessed as reduction of colony formation in soft agar at 100 to 250 uM after 24 hrs using crystal violet staining; assay type: functional, cell-based
[8] = Induction of free radicals production in carbonate buffer at pH 9 by electron spin resonance analysis; assay type: physicochemical
[9] = Induction of free radicals production in RPMI 1640 medium at pH 7.4 by electron spin resonance analysis; assay type: physicochemical
U-937 [10] = assay: Induction of cell differentiation in human U937 cells assessed as increase of CD11b and CD14 expression at 500 uM after 72 hrs by FACS flow cytometer analysis; assay type: functional, cell-based
U-937 [11] = assay: Induction of apoptosis in human U937 cells assessed as phosphatidylserine expression in plasma membrane at 500 uM after 24 hrs by Annexin V-FITC double staining; assay type: functional, cell-based
PBMC = assay: Cytotoxicity against human PBMC at 500 uM after 48 hrs by trypan blue assay; assay type: cell-based
Jurkat = assay: Induction of apoptosis in human Jurkat cells assessed as activation of caspase-3-mediated PARP cleavage at 500 uM after 24 hrs by colorimetric assay; assay type: functional, cell-based
U-937 [12] = assay: Pro-oxidant activity in human U937 cells assessed as DCF-DA oxidation at 10 to 250 uM after 48 hrs by fluorescence assay; assay type: functional, cell-based
U-937 [13] = assay: Induction of cell differentiation in human U937 cells assessed as increase of rhC5a-induced response at 500 uM after 72 hrs by FACS flow cytometer analysis; assay type: functional, cell-based
U-937 [14] = assay: Induction of cell differentiation in human U937 cells assessed as increase of CD88 expression at 500 uM after 72 hrs by FACS flow cytometer analysis; assay type: functional, cell-based
U-937 [15] = assay: Induction of apoptosis in human U937 cells assessed as active 11 kDa fragment of caspase-3 at 250 uM after 24 hrs by Western blot analysis; assay type: functional, cell-based
U-937 [16] = assay: Induction of apoptosis in human U937 cells assessed as PARP cleavage at 250 uM after 24 hrs by Western blot analysis; assay type: functional, cell-based
U-937 [17] = assay: Induction of apoptosis in human U937 cells assessed as activation of caspase-3 at 250 uM after 24 hrs by colorimetric assay; assay type: functional, cell-based
U-937 [18] = assay: Cell cycle arrest in human U937 cells assessed as accumulation at sub-G0/G1 phase at 250 uM after 24 hrs using propidium iodide staining by FACS analysis; assay type: functional, cell-based
U-937 [19] = assay: Induction of apoptosis in human U937 cells assessed as reduction of normal cells at 250 uM after 24 hrs by Annexin V-FITC double staining; assay type: functional, cell-based

Compound	IC50 (U-937 [3])	Activity [4]	Activity [8]	Activity [9]	Activity (U-937 [1])	CC50 (U-937 [2])	colony formation inhibition (active/not active) (U-937 [7])	Activity (U-937 [10])	other results
COc1cc2ccc(=O)oc2cc1OC [SCOPARONE]	590 µM	Not Active			inactive	1290 µM			
O=C(O)/C=C/c1ccc(O)c(O)c1 [CAFFEIC ACID]	316 µM		Active	Active		> 2000 µM	inactive		Activity (U-937 [5]): inactive; Activity (U-937 [6]): inactive
Cc1cc(=O)oc2ccc(O)cc12					inactive	> 2000 µM		Active	
COc1ccc2c(C)cc(=O)oc2c1OC	736 µM	Not Active			inactive	> 2000 µM	inactive	inactive	Activity (U-937 [11]): Active; Activity (PBMC): Non-toxic; Activity (Jurkat): inactive; Activity (U-937 [12]): inactive; Activity (U-937 [13]): inactive; Activity (U-937 [14]): inactive
COc1ccc(CCC(=O)O)cc1OC	> 2000 µM	Active				> 2000 µM		inactive	Activity (PBMC): Non-toxic; Activity (Jurkat): inactive; Activity (U-937 [12]): inactive; Activity (U-937 [13]): inactive; Activity (U-937 [14]): inactive
Cc1cc(=O)oc2cc(O)c(Cl)cc12	771 µM				inactive	734 µM		inactive	
Cc1cc(=O)oc2cc(O)c(O)cc12 [4-METHYLESCULETIN]	97.4 µM		Active	Active		76 µM	Active		Activity (U-937 [15]): Active; Activity (U-937 [16]): Active; Activity (U-937 [17]): Active; Activity (U-937 [18]): Active; Activity (U-937 [19]): Active

Continued, in another order:

IC50 (U-937 [3])	Activity [4]	Activity [8]	Activity [9]	Compound	Activity (U-937 [1])	CC50 (U-937 [2])	colony formation inhibition (active/not active) (U-937 [7])	Activity (U-937 [10])	other results
976 µM				COc1cc2ccc(=O)oc2cc1O [SCOPOLETIN]	inactive	> 2000 µM		inactive	
143 µM		Active	Active	O=c1ccc2cc(O)c(O)cc2o1 [ESCULETIN]		108 µM	Active		Activity (U-937 [15]): Active; Activity (U-937 [16]): Active; Activity (U-937 [17]): Active; Activity (U-937 [18]): Active; Activity (U-937 [19]): Active
> 2000 µM	Not Active			COc1cc(C)oc(=O)c1		> 2000 µM		Active	
143 µM		Active	Active	COc1cc2ccc(=O)oc2c(O)c1O [FRAXETIN]		70.2 µM	Active		Activity (U-937 [15]): Active; Activity (U-937 [16]): Active; Activity (U-937 [17]): Active; Activity (U-937 [18]): Active; Activity (U-937 [19]): Active
